# Experimental data published in US20260193293A1, “PEPTIDES CAPABLE OF INHIBITING PROTEIN-PROTEIN INTERACTIONS AT GABAB1A SUBUNIT AND USES THEREOF” (UNIVERSITY OF COPENHAGEN, priority 2022, published 2026).
# Where two headings read alike, the source gives them in different places. Non-standard residues stand in square brackets, D forms with d. Residues, ends and D or L forms follow the SMILES beside them. 2Nal = N[C@@H](Cc1ccc2ccccc2c1)C(=O)O; NMeT = CN[C@H](C(=O)O)[C@@H](C)O; NMeE = CN[C@@H](CCC(=O)O)C(=O)O
# Experiments:
# [1] = molecular target: Sushi domains (SD1/2) protein; experiment: Fluorescence polarization (FP) competition assay with AJAP-1probe, calculated Ki; type: binding
# How it was run: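 Competition against 25 nM TAMRA-labelled peptide probe binding SD1/2, in PBS pH 7.4 with 1% BSA at rt, read at 530/580 nm. IC50 from sigmoidal dose-response fits, at least triplicate; Ki calculated from IC50 using probe Kd from saturation binding.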
# [2] = In vitro plasma stability; settings: for half-life / remaining at 48 h, 100 µM: human; for half-life: plasma
# Procedure: For time-course assay, 360 μL human plasma was pre-warmed up at 37° C. for 15 min and then spiked with 40 μL of tested peptides (1 mM in 1×PBS). […] Subsequently, 100 μL acetonitrile was added into and then samples were incubated overnight at −20° C. After that, all samples were centrifuged at 13,400 rpm for 10 min and the supernatant was filtered and then analyzed by LC-MS and UPLC (Waters). The area under the curve (AUC) was determined and normalized to the value of the first time point. The half-life (T1/2) was obtained by fitting the data to the one-phase decay equation in GraphPad Prism 9 and expressed as the mean of three individual experiments. For end-point assay, 108 μL human plasma was pre-warmed up at 37° C. for 15 min and then spiked with 12 μL of tested peptides (1 mM in 1×PBS).
# [3] = CPP tagged peptides overview, SD1/2 binding affinity, mean ± SEM, n ≥ 3, read-out: Ki
# [4] = Table 1, affinity maturation, mean ± SEM, n ≥ 3, read-out: Ki
# [5] = Table 14, CPPs tagged peptides, read-out: Ki (nM) mean ± SEM
# [6] = Table 13, peptides for affinity maturation, read-out: Ki (nM) mean ± SEM
# [7] = Table 4, truncation and elongation scans of APP epitope, read-out: Ki (nM) mean ± SEM
# [8] = Table 10, deep mutational scanning validation variants of APPWT, read-out: Ki (nM) mean ± SEM
# [9] = Table 7, Ala-, D-amino acids and N-methylation scans of APPWT, read-out: Ki (nM) mean ± SEM
compound,measurement,setting,value
CC[C@H](C)[C@H](NC(=O)[C@H](Cc1ccc2ccccc2c1)NC(=O)[C@H](CC(=O)O)NC(=O)[C@H](CC(=O)O)NC(=O)[C@H](CC(=O)O)NC(=O)[C@H](CCC(=O)O)NC(C)=O)C(=O)N[C@@H](CC(=O)O)C(=O)N[C@@H](Cc1c[nH]c2ccccc12)C(=O)NCC(=O)N1CCC[C@H]1C(=O)N[C@H](C(=O)N[C@@H](CO)C(=O)N[C@@H](CC(=O)O)C(=O)N[C@@H](CC(=O)O)C(=O)N[C@@H](CC(=O)O)C(N)=O)[C@@H](C)O [Peptide 21] (Ac-EDDD[2Nal]IDWGPTSDDD-NH2),Ki,[1]; [3],5.3 ± 0.2 nM
same,Ki,[1]; [4],5.3 ± 0.2 nM
same,Ki,"[1]; Table 16, ncAAs incorporated peptides, read-out: Ki (nM) mean ± SEM",5.3 ± 0.2 nM
same,half-life,[2],> 48 h
CC[C@H](C)[C@H](NC(=O)[C@H](Cc1c[nH]c2ccccc12)NC(=O)[C@H](CC(=O)O)NC(=O)[C@H](CC(=O)O)NC(=O)[C@H](CC(=O)O)NC(=O)[C@H](CCC(=O)O)NC(=O)[C@H](CCCNC(=N)N)NC(=O)[C@H](CCCNC(=N)N)NC(=O)[C@H](CCCNC(=N)N)NC(=O)[C@H](CCCNC(=N)N)NC(=O)[C@H](CCCNC(=N)N)NC(=O)[C@H](CCCNC(=N)N)NC(=O)[C@H](CCCNC(=N)N)NC(=O)[C@H](CCCNC(=N)N)NC(C)=O)C(=O)N[C@@H](CC(=O)O)C(=O)N[C@@H](Cc1c[nH]c2ccccc12)C(=O)NCC(=O)N1CCC[C@H]1C(=O)N[C@H](C(=O)N[C@@H](CO)C(=O)N[C@@H](CC(=O)O)C(=O)N[C@@H](CC(=O)O)C(=O)N[C@@H](CC(=O)O)C(N)=O)[C@@H](C)O [Peptide R8-17] (Ac-RRRRRRRREDDDWIDWGPTSDDD-NH2),Ki,[1]; [3],58 ± 3 nM
same,Ki,[1]; [5],58.1 ± 3 nM
same,"remaining at 48 h, 100 µM",[2]; human plasma,~50%
same,half-life,[2],> 48 h
CC[C@H](C)[C@H](NC(=O)[C@H](Cc1ccc2ccccc2c1)NC(=O)[C@H](CC(=O)O)NC(=O)[C@H](CC(=O)O)NC(=O)[C@H](CC(=O)O)NC(=O)[C@H](CCC(=O)O)NC(=O)[C@H](CCCNC(=N)N)NC(=O)[C@H](CCCNC(=N)N)NC(=O)[C@H](CCCNC(=N)N)NC(=O)[C@H](CCCNC(=N)N)NC(C)=O)C(=O)N[C@@H](CC(=O)O)C(=O)N[C@@H](Cc1c[nH]c2ccccc12)C(=O)NCC(=O)N1CCC[C@H]1C(=O)N[C@H](C(=O)N[C@@H](CO)C(=O)N[C@@H](CC(=O)O)C(=O)N[C@@H](CC(=O)O)C(=O)N[C@@H](CC(=O)O)C(N)=O)[C@@H](C)O [Peptide R4-21] (Ac-RRRREDDD[2Nal]IDWGPTSDDD-NH2),Ki,[1]; [3],13 ± 1 nM
same,Ki,[1]; [5],13 ± 1 nM
same,T1/2,"[2]; human plasma, 37° C.",>48 h
same,half-life,[2],> 48 h
CC[C@H](C)[C@H](NC(=O)[C@H](Cc1c[nH]c2ccccc12)NC(=O)[C@H](CC(=O)O)NC(=O)[C@H](CC(=O)O)NC(=O)[C@H](CC(=O)O)NC(=O)[C@H](CCC(=O)O)NC(=O)[C@H](CCCNC(=N)N)NC(=O)[C@H](CCCNC(=N)N)NC(=O)[C@H](CCCNC(=N)N)NC(=O)[C@H](CCCNC(=N)N)NC(=O)[C@H](CCCNC(=N)N)NC(=O)[C@H](CCCNC(=N)N)NC(=O)[C@H](CCCNC(=N)N)NC(=O)[C@H](CCCNC(=N)N)NC(C)=O)C(=O)N[C@@H](CC(=O)O)C(=O)N[C@@H](Cc1c[nH]c2ccccc12)C(=O)N[C@@H](Cc1ccc(O)cc1)C(=O)N[C@@H](CC(=O)O)C(=O)N[C@@H](CO)C(=O)N[C@@H](CC(=O)O)C(=O)N[C@@H](CC(=O)O)C(=O)N[C@@H](CC(=O)O)C(N)=O [Peptide R8-16] (Ac-RRRRRRRREDDDWIDWYDSDDD-NH2),Ki,[1]; [3],107 ± 1 nM
same,Ki,[1]; [5],107 ± 2 nM
same,"remaining at 48 h, 100 µM",[2]; human plasma,~50%
same,half-life,[2],> 48 h
CC[C@H](C)[C@H](NC(=O)[C@H](Cc1c[nH]c2ccccc12)NC(=O)[C@H](CC(=O)O)NC(=O)[C@H](CC(=O)O)NC(=O)[C@H](CC(=O)O)NC(=O)[C@H](CCC(=O)O)NC(C)=O)C(=O)N[C@@H](CC(=O)O)C(=O)N[C@@H](Cc1c[nH]c2ccccc12)C(=O)NCC(=O)N1CCC[C@H]1C(=O)N[C@H](C(=O)N[C@@H](CO)C(=O)N[C@@H](CC(=O)O)C(=O)N[C@@H](CC(=O)O)C(=O)N[C@@H](CC(=O)O)C(N)=O)[C@@H](C)O [Peptide 17] (Ac-EDDDWIDWGPTSDDD-NH2),Ki,[1]; [3],4 ± 0.3 nM
same,Ki,[1]; [4],4 ± 0.3 nM
same,Ki,[1]; [6],4 ± 0.3 nM
same,half-life,[2],> 48 h
CC(=O)N[C@@H](CCC(=O)O)C(=O)N[C@@H](CCC(=O)O)C(=O)N[C@@H](CC(=O)O)C(=O)N[C@@H](CC(=O)O)C(=O)N[C@@H](CO)C(=O)N[C@@H](CC(=O)O)C(=O)N[C@H](C(=O)N[C@@H](Cc1c[nH]c2ccccc12)C(=O)N[C@@H](Cc1c[nH]c2ccccc12)C(=O)NCC(=O)NCC(=O)N[C@@H](C)C(=O)N[C@@H](CC(=O)O)C(=O)N[C@H](C(N)=O)[C@@H](C)O)C(C)C (Ac-EEDDSDVWWGGADT-NH2),Ki,[1]; [7],585 ± 10 nM
CC(=O)N[C@@H](CCC(=O)O)C(=O)N[C@@H](CC(=O)O)C(=O)N[C@@H](CC(=O)O)C(=O)N[C@@H](CO)C(=O)N[C@@H](CC(=O)O)C(=O)N[C@H](C(=O)N[C@@H](Cc1ccc(O)cc1)C(=O)N[C@@H](Cc1c[nH]c2ccccc12)C(=O)NCC(=O)NCC(=O)N[C@@H](C)C(=O)N[C@@H](CC(=O)O)C(=O)N[C@H](C(=O)N[C@@H](CC(=O)O)C(N)=O)[C@@H](C)O)C(C)C (Ac-EDDSDVYWGGADTD-NH2),Ki,[1]; [8],3600 ± 49 nM
CC[C@H](C)[C@H](NC(=O)[C@H](CO)NC(=O)[C@H](CC(=O)O)NC(=O)[C@H](CC(=O)O)NC(=O)[C@H](CCC(=O)O)NC(C)=O)C(=O)N[C@H](C(=O)N[C@@H](Cc1c[nH]c2ccccc12)C(=O)N[C@@H](Cc1c[nH]c2ccccc12)C(=O)NCC(=O)NCC(=O)N[C@@H](C)C(=O)N[C@@H](CC(=O)O)C(=O)N[C@H](C(=O)N[C@@H](CC(=O)O)C(N)=O)[C@@H](C)O)C(C)C (Ac-EDDSIVWWGGADTD-NH2),Ki,[1]; [8],243 ± 3 nM
CC[C@H](C)[C@H](NC(=O)[C@@H](NC(=O)[C@H](CC(=O)O)NC(=O)[C@H](CO)NC(=O)[C@H](CC(=O)O)NC(=O)[C@H](CC(=O)O)NC(=O)[C@H](CCC(=O)O)NC(C)=O)C(C)C)C(=O)N[C@@H](Cc1c[nH]c2ccccc12)C(=O)NCC(=O)NCC(=O)N[C@@H](C)C(=O)N[C@@H](CC(=O)O)C(=O)N[C@H](C(=O)N[C@@H](CC(=O)O)C(N)=O)[C@@H](C)O (Ac-EDDSDVIWGGADTD-NH2),Ki,[1]; [8],951 ± 20 nM
CC(=O)N[C@@H](CCC(=O)O)C(=O)N[C@@H](CC(=O)O)C(=O)N[C@@H](CC(=O)O)C(=O)N[C@@H](CO)C(=O)N[C@@H](CC(=O)O)C(=O)N[C@H](C(=O)N[C@@H](Cc1c[nH]c2ccccc12)C(=O)N[C@@H](Cc1c[nH]c2ccccc12)C(=O)NCC(=O)NCC(=O)N[C@@H](C)C(=O)N[C@@H](CC(=O)O)C(=O)N[C@H](C(=O)N[C@@H](CC(=O)O)C(=O)N[C@@H](Cc1ccc(O)cc1)C(=O)N[C@@H](C)C(=O)N[C@@H](CC(=O)O)C(N)=O)[C@@H](C)O)C(C)C (Ac-EDDSDVWWGGADTDYAD-NH2),Ki,[1]; [7],281 ± 4 nM
CC[C@H](C)[C@H](NC(=O)[C@H](Cc1c[nH]c2ccccc12)NC(=O)[C@@H]1CCCN1C(C)=O)C(=O)N[C@H](C(=O)N[C@H](C(=O)N[C@@H](Cc1c[nH]c2ccccc12)C(=O)NCC(=O)N1CCC[C@H]1C(=O)N[C@H](C(=O)N[C@H](C(=O)N[C@@H](CO)C(=O)N[C@@H](CCCNC(=N)N)C(=O)N[C@@H](CCC(=O)O)C(=O)N[C@@H](CC(=O)O)C(N)=O)C(C)C)[C@@H](C)O)C(C)C)[C@@H](C)CC [PWIIVWGPTVSRED],Ki,"[1]; Table 12, deep mutational scanning validation variants of PIANPWT, read-out: Ki (nM) mean ± SEM",339 ± 8 nM
CC[C@H](C)[C@H](NC(=O)[C@H](Cc1ccc(O)cc1)NC(=O)[C@H](CC(=O)O)NC(=O)[C@H](CC(=O)O)NC(=O)[C@H](CCC(=O)O)NC(C)=O)C(=O)N[C@@H](CC(=O)O)C(=O)N[C@@H](Cc1c[nH]c2ccccc12)C(=O)N[C@@H](Cc1ccc(O)cc1)C(=O)N[C@@H](CC(=O)O)C(=O)N[C@@H](CO)C(=O)N[C@@H](CC(=O)O)C(=O)N[C@@H](CC(=O)O)C(=O)N[C@@H](CC(=O)O)C(N)=O [Peptide 18] (Ac-EDDYIDWYDSDDD-NH2),Ki,[1]; [4],4.6 ± 0.3 nM
same,Ki,[1]; [6],4.6 ± 0.3 nM
CC(=O)N[C@@H](CCC(=O)O)C(=O)N[C@@H](CC(=O)O)C(=O)N[C@@H](CC(=O)O)C(=O)N[C@@H](CO)C(=O)N[C@@H](CC(=O)O)C(=O)N[C@H](C(=O)N[C@@H](Cc1c[nH]c2ccccc12)C(=O)N[C@@H](Cc1c[nH]c2ccccc12)C(=O)NCC(=O)NCC(=O)N[C@@H](C)C(=O)N[C@@H](CC(=O)O)C(=O)N(C)[C@H](C(=O)N[C@@H](CC(=O)O)C(N)=O)[C@@H](C)O)C(C)C (Ac-EDDSDVWWGGAD[NMeT]D-NH2),Ki,[1]; [9],503 ± 13 nM
CC[C@H](C)[C@H](NC(=O)[C@H](Cc1c[nH]c2ccccc12)NC(=O)[C@H](CC(=O)O)NC(=O)[C@H](CC(=O)O)NC(=O)[C@H](CC(=O)O)NC(=O)[C@H](CCC(=O)O)NC(C)=O)C(=O)N[C@@H](CC(=O)O)C(=O)N[C@@H](Cc1c[nH]c2ccccc12)C(=O)NCC(=O)N1CCC[C@H]1C(=O)N[C@H](C(=O)N[C@@H](CO)C(=O)N[C@@H](CC(=O)O)C(=O)N[C@@H](CC(=O)O)C(=O)N[C@@H](CC(=O)O)C(=O)N[C@@H](Cc1ccc(O)cc1)C(=O)NCC(=O)N[C@@H](CCCNC(=N)N)C(=O)N[C@@H](CCCCN)C(=O)N[C@@H](CCCCN)C(=O)N[C@@H](CCCNC(=N)N)C(=O)N[C@@H](CCCNC(=N)N)C(=O)N[C@@H](CCC(N)=O)C(=O)N[C@@H](CCCNC(=N)N)C(=O)N[C@@H](CCCNC(=N)N)C(=O)N[C@@H](CCCNC(=N)N)C(N)=O)[C@@H](C)O [Peptide 17-Tat] (Ac-EDDDWIDWGPTSDDDYGRKKRRQRRR-NH2),Ki,[1]; [3],79 ± 1 nM
same,Ki,[1]; [5],78.5 ± 1 nM
CC(=O)N(C)[C@@H](CCC(=O)O)C(=O)N[C@@H](CC(=O)O)C(=O)N[C@@H](CC(=O)O)C(=O)N[C@@H](CO)C(=O)N[C@@H](CC(=O)O)C(=O)N[C@H](C(=O)N[C@@H](Cc1c[nH]c2ccccc12)C(=O)N[C@@H](Cc1c[nH]c2ccccc12)C(=O)NCC(=O)NCC(=O)N[C@@H](C)C(=O)N[C@@H](CC(=O)O)C(=O)N[C@H](C(=O)N[C@@H](CC(=O)O)C(N)=O)[C@@H](C)O)C(C)C (Ac-[NMeE]DDSDVWWGGADTD-NH2),Ki,[1]; [9],670 ± 6 nM
